Laboratory results as given in ChEMBL document CHEMBL1255295, “Convergent in vivo and in vitro selection of ceftazidime resistance mutations at position 167 of CTX-M-3 beta-lactamase in hypermutable Escherichia coli strains” (2008).
≈ marks a conversion by molar mass, not a printed value.

Experiments:
Escherichia coli [1] = assay: Antimicrobial activity against Escherichia coli EPI300 transformant harboring pCC1 by agar dilution method; assay type: functional
Escherichia coli [2] = assay: Antimicrobial activity against Escherichia coli EPI300 harboring pCC1 carrying beta-lactamase CTX-M-3 gene by agar dilution method; assay type: functional
Escherichia coli [3] = assay: Antimicrobial activity against ceftazidime-resistant Escherichia coli Irk2320 harboring beta-lactamase CTX-M-42 Pro167Thr mutant gene by agar dilution method; assay type: functional
Escherichia coli [4] = assay: Antimicrobial activity against ceftazidime-resistant Escherichia coli Irk2322 harboring beta-lactamase CTX-M-42 Pro167Thr mutant gene by agar dilution method; assay type: functional
Escherichia coli [5] = assay: Antimicrobial activity against Escherichia coli EPI300 harboring pCC1 carrying beta-lactamase CTX-M-42 Pro167Thr mutant gene by agar dilution method; assay type: functional
Escherichia coli [6] = assay: Antimicrobial activity against Escherichia coli Irk1224 harboring beta-lactamase CTX-M-3 by agar dilution method; assay type: functional
Escherichia coli [7] = assay: Antimicrobial activity against Escherichia coli AB14156 harboring beta-lactamase CTX-M-42 Pro167Thr mutant gene by agar dilution method; assay type: functional
Escherichia coli [8] = assay: Antimicrobial activity against Escherichia coli GM2995 harboring plasmid pCC1 carrying beta-lactamase CTX-M-3 gene by agar dilution method; assay type: functional
Escherichia coli [9] = assay: Antimicrobial activity against Escherichia coli Irk1224 type 1 mutant harboring beta-lactamase CTX-M-3 by agar dilution method; assay type: functional
Escherichia coli [10] = assay: Antimicrobial activity against Escherichia coli EPI300 harboring plasmid pCC1 by agar dilution method in presence of beta-lactamase inhibitor clavulanic acid
Escherichia coli [11] = assay: Antimicrobial activity against ceftazidime-resistant Escherichia coli Irk2322 harboring beta-lactamase CTX-M-42 Pro167Thr mutant gene by agar dilution method in presence of beta-lactamase inhibitor clavulanic acid
Escherichia coli [12] = assay: Antimicrobial activity against Escherichia coli EPI300 harboring pCC1 carrying beta-lactamase CTX-M-42 Pro167Thr mutant gene by agar dilution method in presence of beta-lactamase inhibitor clavulanic acid
Escherichia coli [13] = assay: Antimicrobial activity against Escherichia coli GM2995 harboring plasmid pCC1 carrying beta-lactamase CTX-M-3 from by agar dilution method; assay type: functional
Escherichia coli [14] = assay: Antimicrobial activity against Escherichia coli Irk1224 harboring beta-lactamase CTX-M-3 by agar dilution method in presence of beta-lactamase inhibitor clavulanic acid
Escherichia coli [15] = assay: Antimicrobial activity against Escherichia coli EPI300 harboring pCC1 carrying beta-lactamase CTX-M-3 by agar dilution method in presence of beta-lactamase inhibitor clavulanic acid
Escherichia coli [16] = assay: Antimicrobial activity against ceftazidime-resistant Escherichia coli Irk2320 harboring beta-lactamase CTX-M-42 Pro167Thr mutant gene by agar dilution method in presence of beta-lactamase inhibitor clavulanic acid
Escherichia coli [17] = assay: Antimicrobial activity against Escherichia coli EPI300 Irk1224 type 3 mutant harboring CTX-M-3 beta-lactamase Lys136 mutant gene by agar dilution method
Escherichia coli [18] = assay: Antimicrobial activity against Escherichia coli AB14156 harboring beta-lactamase CTX-M-42 Pro167Thr mutant gene by agar dilution method in presence of beta-lactamase inhibitor clavulanic acid
Escherichia coli [19] = assay: Antimicrobial activity against Escherichia coli Irk1224 type 2 mutant harboring beta-lactamase CTX-M-3 Ser167 mutant gene by agar dilution method; assay type: functional
Escherichia coli [20] = assay: Antimicrobial activity against Escherichia coli EPI300 Irk1224 type 2 mutant harboring beta-lactamase CTX-M-3 Ser167 mutant gene by agar dilution method
Escherichia coli [21] = assay: Antimicrobial activity against Escherichia coli Irk1224 type 3 mutant harboring beta-lactamase CTX-M-3 Lys136 mutant gene by agar dilution method; assay type: functional
Escherichia coli [22] = assay: Antimicrobial activity against Escherichia coli GM2995 harboring plasmid pCC1 carrying beta-lactamase CTX-M-3 Ser167 mutant gene by agar dilution method
Escherichia coli [23] = assay: Antimicrobial activity against Escherichia coli EPI300 harboring GM2995 pCC1 carrying beta-lactamase CTX-M-3 Ser167 mutant gene by agar dilution method
Escherichia coli [24] = assay: Antimicrobial activity against Escherichia coli EPI300 harboring GM2995 pCC1-1224 carrying CTX-M-3 beta-lactamase gene from by agar dilution method; assay type: functional
Escherichia coli [25] = assay: Antimicrobial activity against Escherichia coli EPI300 Irk1224 type 1 mutant harboring beta-lactamase CTX-M-3 gene by agar dilution method; assay type: functional
Escherichia coli [26] = assay: Antimicrobial activity against Escherichia coli EPI300 harboring GM2995 pCC1 carrying beta-lactamase CTX-M-3 gene by agar dilution method; assay type: functional

SMILES	MIC (Escherichia coli [1])	MIC (Escherichia coli [2])	MIC (Escherichia coli [3])	MIC (Escherichia coli [4])	MIC (Escherichia coli [5])	MIC (Escherichia coli [6])	MIC (Escherichia coli [7])	MIC (Escherichia coli [8])	MIC (Escherichia coli [9])	MIC (Escherichia coli [10])	MIC (Escherichia coli [11])	MIC (Escherichia coli [12])	MIC (Escherichia coli [13])	MIC (Escherichia coli [14])	MIC (Escherichia coli [15])	MIC (Escherichia coli [16])	MIC (Escherichia coli [17])	MIC (Escherichia coli [18])	MIC (Escherichia coli [19])	MIC (Escherichia coli [20])	other results
CO/N=C(\C(=O)N[C@@H]1C(=O)N2C(C(=O)[O-])=C(C[N+]3(C)CCCC3)CS[C@H]12)c1csc(N)n1	0.06 µg/mL (≈ 0.125 µM)	0.5 µg/mL (≈ 1.04 µM)	1 µg/mL (≈ 2.08 µM)	1 µg/mL (≈ 2.08 µM)	0.25 µg/mL (≈ 0.52 µM)	32 µg/mL (≈ 66.6 µM)	1 µg/mL (≈ 2.08 µM)	–	–	–	–	–	–	–	–	–	–	–	–	–	–
CO/N=C(\C(=O)N[C@@H]1C(=O)N2C(C(=O)O)=C(COC(C)=O)CS[C@H]12)c1csc(N)n1 [CEFOTAXIME]	–	–	–	–	–	–	–	4 µg/mL (≈ 8.78 µM)	≥ 256 µg/mL	4 µg/mL	4 µg/mL	4 µg/mL	≥ 256 µg/mL	4 µg/mL	4 µg/mL	4 µg/mL	1 µg/mL (≈ 2.2 µM)	4 µg/mL	64 µg/mL (≈ 141 µM)	1 µg/mL (≈ 2.2 µM)	MIC (Escherichia coli [21]): 64 µg/mL (≈ 141 µM); MIC (Escherichia coli [22]): 1 µg/mL (≈ 2.2 µM); MIC (Escherichia coli [23]): 1 µg/mL (≈ 2.2 µM)
CC1(C)S[C@@H]2[C@H](NC(=O)[C@H](N)c3ccccc3)C(=O)N2[C@H]1C(=O)O [AMPICILLIN]	–	≥ 256 µg/mL	≥ 256 µg/mL	≥ 256 µg/mL	≥ 256 µg/mL	≥ 256 µg/mL	≥ 256 µg/mL	≥ 256 µg/mL	≥ 256 µg/mL	–	–	–	≥ 256 µg/mL	–	–	–	32 µg/mL (≈ 91.6 µM)	–	≥ 256 µg/mL	128 µg/mL (≈ 366 µM)	MIC (Escherichia coli [24]): ≥ 256 µg/mL; MIC (Escherichia coli [25]): ≥ 256 µg/mL; MIC (Escherichia coli [26]): ≥ 256 µg/mL; MIC (Escherichia coli [21]): ≥ 256 µg/mL; MIC (Escherichia coli [22]): 128 µg/mL (≈ 366 µM); MIC (Escherichia coli [23]): 128 µg/mL (≈ 366 µM)
CC(C)(O/N=C(\C(=O)N[C@@H]1C(=O)N2C(C(=O)[O-])=C(C[n+]3ccccc3)CS[C@H]12)c1csc(N)n1)C(=O)O [CEFTAZIDIME]	0.25 µg/mL (≈ 0.457 µM)	–	–	–	–	–	–	1 µg/mL (≈ 1.83 µM)	≥ 256 µg/mL	4 µg/mL	4 µg/mL	4 µg/mL	32 µg/mL (≈ 58.5 µM)	4 µg/mL	4 µg/mL	4 µg/mL	8 µg/mL (≈ 14.6 µM)	4 µg/mL	≥ 256 µg/mL	16 µg/mL (≈ 29.3 µM)	MIC (Escherichia coli [24]): 1 µg/mL (≈ 1.83 µM); MIC (Escherichia coli [25]): 1 µg/mL (≈ 1.83 µM); MIC (Escherichia coli [26]): 1 µg/mL (≈ 1.83 µM); MIC (Escherichia coli [21]): ≥ 256 µg/mL; MIC (Escherichia coli [22]): 32 µg/mL (≈ 58.5 µM); MIC (Escherichia coli [23]): 16 µg/mL (≈ 29.3 µM)
CO/N=C(\C(=O)N[C@@H]1C(=O)N2C(C(=O)O)=C(CSc3nc(=O)c(O)nn3C)CS[C@H]12)c1csc(N)n1 [CEFTRIAXONE]	0.06 µg/mL (≈ 0.108 µM)	4 µg/mL (≈ 7.21 µM)	8 µg/mL (≈ 14.4 µM)	8 µg/mL (≈ 14.4 µM)	1 µg/mL (≈ 1.8 µM)	≥ 256 µg/mL	8 µg/mL (≈ 14.4 µM)	–	–	–	–	–	–	–	–	–	–	–	–	–	–
CC1(C)S[C@@H]2[C@H](NC(=O)[C@H](N)c3ccc(O)cc3)C(=O)N2[C@H]1C(=O)O [AMOXICILLIN]	2 µg/mL (≈ 5.47 µM)	8 µg/mL (≈ 21.9 µM)	16 µg/mL (≈ 43.8 µM)	16 µg/mL (≈ 43.8 µM)	8 µg/mL (≈ 21.9 µM)	32 µg/mL (≈ 87.6 µM)	16 µg/mL (≈ 43.8 µM)	–	–	1 µg/mL	8 µg/mL	4 µg/mL	–	16 µg/mL	4 µg/mL	8 µg/mL	–	8 µg/mL	–	–	–
